SMILES strings stand for the structures. Numbering of substitutions follows the chain as printed.

Assay [1] has as its system E. coli EPSPS glyphosate-resistant isolate, single amino acid substitution of an alanine for the glycine at position 96. The note with it: read-out: apparent Ki for glyphosate; alanine for glycine at position 96; cited from earlier work.
Assay [2] has as its target T1, Z. mays EPSPS variant glypR (Thr-Ile, Pro-Ser) (Zea mays, UniProt A0A1D6NVZ6, P168S/T164I).
T1 sequence (A0A1D6NVZ6 63-506 T164I/P168S limits assumed): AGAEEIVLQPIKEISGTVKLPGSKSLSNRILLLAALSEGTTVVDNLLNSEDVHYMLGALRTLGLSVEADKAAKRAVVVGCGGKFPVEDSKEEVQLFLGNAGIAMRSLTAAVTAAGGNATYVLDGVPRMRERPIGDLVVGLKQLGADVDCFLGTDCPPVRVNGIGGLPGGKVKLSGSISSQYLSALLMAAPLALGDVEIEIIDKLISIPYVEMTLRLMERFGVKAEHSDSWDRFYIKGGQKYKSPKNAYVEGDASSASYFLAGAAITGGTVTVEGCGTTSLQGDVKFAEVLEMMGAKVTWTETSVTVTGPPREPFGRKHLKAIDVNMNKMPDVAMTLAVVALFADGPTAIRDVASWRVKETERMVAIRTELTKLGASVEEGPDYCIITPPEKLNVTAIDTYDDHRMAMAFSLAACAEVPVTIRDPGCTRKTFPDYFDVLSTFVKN
In words: kinetic characterization of EPSP synthase (Table 4). The format is biochemical. The note with it: read-out: apparent Ki for glyphosate; with respect to PEP, saturating S3P. As to the method:
(§1) Final sample volumes are approximately 0.5 ml.

Assay [3] has as its target T2, Z. mays glypS (wt) EPSPS (Zea mays, glyphosate sensitive, wild type) (Zea mays, UniProt A0A1D6NVZ6).
T2 sequence (A0A1D6NVZ6 63-506 limits assumed): T1 sequence (A0A1D6NVZ6 63-506 T164I/P168S limits assumed) with I102T, S106P
The assay is described as above. The format is biochemical. The method, then: as §1

For assay [4], the target named is T3, E. indica glypS EPSPS (Eleusine indica, naturally occurring glyphosate sensitive, wild type) (Eleusine indica, UniProt Q95AK0).
T3 construct: plant extract or E. coli SR481 extract
T3 sequence (Q95AK0 1-445): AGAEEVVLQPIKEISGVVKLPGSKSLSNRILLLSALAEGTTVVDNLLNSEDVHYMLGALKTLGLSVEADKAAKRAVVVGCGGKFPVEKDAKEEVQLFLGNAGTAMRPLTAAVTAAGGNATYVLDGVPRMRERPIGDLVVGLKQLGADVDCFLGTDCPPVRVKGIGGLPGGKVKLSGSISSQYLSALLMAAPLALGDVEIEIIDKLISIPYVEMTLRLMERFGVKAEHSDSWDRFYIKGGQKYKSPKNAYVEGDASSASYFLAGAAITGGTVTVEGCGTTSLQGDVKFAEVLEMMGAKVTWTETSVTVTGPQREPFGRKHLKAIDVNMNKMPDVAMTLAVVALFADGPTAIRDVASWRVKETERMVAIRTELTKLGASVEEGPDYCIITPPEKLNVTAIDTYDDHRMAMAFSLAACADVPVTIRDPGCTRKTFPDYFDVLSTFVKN
The assay is described as above. The format is biochemical. The method, then: as §1

The subject of assay [5] is E. coli SR481 cells expressing E. indica EPSP synthase (tolerant vs sensitive biotype). The experiment in a line: growth of transgenic E. coli aroA- cells expressing E. indica EPSPS in the presence of glyphosate (FIG. 3). It is filed as cell-based. As to conditions: M9 minimal media, 0.0, 0.5, 1.5 or 5.0 mM glyphosate, 0-48 hours, vs sensitive biotype enzyme. As to the method:
The EPSP synthase mature protein-coding regions isolated from the glyphosate tolerant and glyphosate sensitive E. indica biotypes, can be directly compared for their ability to confer tolerance to glyphosate in transgenic hosts.
These sequences are employed in RT-PCR reactions to generate expression cassettes suitable for cloning into pMON45337 cut with the restriction enzymes Nde1 and EcoR1. RT-PCR reactions are performed with total RNAs extracted from frozen crown samples using the RNeasy Plant Mini Kit (cat.#74904, Qiagen Inc., Valencia, Calif.) per manufacturer's instructions. Oligo dT-primed first-strand cDNAs are prepared from 5 μg samples of total RNA using the Superscript Pre-Amplification System (cat.#18089-011, Life Technologies, Rockville, Md.) per manufacturer's instructions. Two μl of first-strand cDNA are then used to generate E. indica EPSP synthase expression cassettes via polymerase chain reaction. The oligonucleotides are added in 50 μl RT-PCR reactions at a final concentration of 0.4 μM. PCR amplifications are then performed using the Expand High Fidelity PCR System (cat.#1 732 641, Roche Molecular Biochemicals, Indianapolis, Ind.) per manufacturer's instructions, using a thermal profile of 94° C. for 30 seconds, then 57° C. for 2 minutes, followed by 75° C. for 3 minutes, for a total of 35 cycles. […]

In assay [6] the test system is EPSPS of the glyphosate sensitive E. indica biotype (wild type, plant crown extract). The experiment in a line: radiometric EPSP synthase assay, glyphosate inhibition, plant extracts of sensitive biotype. It is filed as biochemical, Eleusine indica. As to conditions: read-out: I50 (glyphosate); 1 mM shikimate-3-phosphate, 0.5 mM PEP, pH 7.0, 25° C.
Description: Preparation of extracts and radiometric EPSP synthase assays are performed using methods adapted from published procedures (Padgette et al., J. Biol. Chem. 266:22364-22369 (1991). Crown regions are dissected from whole plants, pulverized under liquid nitrogen with a mortar and pestle, then stored at −80° C. prior to extraction. Homogenates are prepared from 0.5 g tissue per sample in 25 ml extraction buffer (100 mM TrisCl, 10% glycerol, 1 mM EDTA, 1 mM benzamidine, 1 mM dithiothreitol, 1 mM 4-(2-aminoethyl)-benzenesulfonyl floride HCl, 0.1 mM leupeptin, pH 7.4) at 4° C. using a model PT3000 Polytron homogenizer (Brinkman Instuments Inc., Westbury, N.Y.). Debris is removed by 0.2 μm filtration, then the resulting supernatant is concentrated and desalted using an Ultrafree-15 centrifugal filtration unit (cat.#UFV2-BGC-10, Millipore Corp., Bedford, Mass.). Final sample volumes are approximately 0.5 ml. Protein concentrations are determined spectrophotometrically using the Bio-Rad protein assay reagent (cat.#500-0006, Bio-Rad Laboratories, Hercules, Calif.). EPSPS specific activities are determined by assaying 10 μl extract at 25° C. for 5-15 min. […] Reactions are quenched with the addition of 50 μl 9:1 ethanol: 0.1 M acetic acid. […]

For the compound `O=C(O)CNCP(=O)(O)O` [glyphosate, N-phosphonomethylglycine], the Ki in assay [1] is 4000 µM; in assay [2], 60 µM; in assay [3], 0.2 µM; in assay [4], 0.05 µM. Moreover, the “increase in tolerance to glyphosate due to EPSP synthase from tolerant E. indica biotype” value in assay [5] is on record as “approximately three-fold increase in tolerance to glyphosate”. In assay [6], the IC50 is about 3 µM.

Source of the values: patent US6803501B2 (Monsanto Technology, LLC, priority 2000, dated 2004).
